Test results taken from US6251627A (priority 1998, dated 2001).

T1: K^b sol (soluble H-2K^b with murine β-2 microglobulin) (Mus musculus, UniProt P01901)
T1 construct: The cDNAs encoding K^b α1α2α3 domains (274 residues) and murine β-2 microglobulin (99 residues); made in house; host or cells: Drosophila S2/M3 cells, secreted into serum-free medium
T1 sequence (P01901 22-295): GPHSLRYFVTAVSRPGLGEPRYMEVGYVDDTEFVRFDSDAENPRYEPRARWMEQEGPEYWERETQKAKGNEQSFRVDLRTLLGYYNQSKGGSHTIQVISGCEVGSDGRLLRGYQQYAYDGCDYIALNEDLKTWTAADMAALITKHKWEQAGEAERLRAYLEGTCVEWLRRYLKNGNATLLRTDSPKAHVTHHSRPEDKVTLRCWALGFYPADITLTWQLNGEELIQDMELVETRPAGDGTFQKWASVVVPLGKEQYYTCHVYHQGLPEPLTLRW
T1 sequence (P01887 21-119 partner): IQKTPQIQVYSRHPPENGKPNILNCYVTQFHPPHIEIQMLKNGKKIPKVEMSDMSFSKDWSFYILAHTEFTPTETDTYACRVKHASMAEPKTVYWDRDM


Tests used:
[1] = molecular target: T1, K^b sol (soluble H-2K^b with murine β-2 microglobulin); assay: biochemical; type: binding
B3/CD8 T-cell hybridoma = assay: antigen presentation assay with B3/CD8 T-cell hybridoma (IL-2 by CTLL 3H thymidine incorporation); type: cell-based, mouse; details: Drosophila cells transfected with K^b/β2; peptide in culture medium or protein osmotically loaded
Method: Osmotic loading of SC2 and 3T3 cells with ovalbumin protein was carried out as described by Moore, et al., Cell 54: 777-785 (1988). The assay procedure is as follows. In a 96-well dish, 1×10^5 Drosophila cells (with or without peptide/protein loaded) or 3T3 cells were cocultured with 1×10^5 B3/CD8 T-cell hybridoma cells in 200 μl of RPMI media supplemented with 10% fetal bovine serum. After 24 hours of incubation, 100 μl of the supernatant from these cultures was added to 100 μl of RPMI containing 5,000 CTLL cells. The cells were cocultured for 24 hours at 37° C. when 1 μCi of ^3 H thymidine (Amersham) was added. After a further incubation of 15 hours at 37° C., the incorporation of radiolabel into the CTLL cells was determined by scintillation counting.
Assays conducted with murine MHC also verified that the insect cells are capable of loading peptide onto the Class I molecules. Cells expressing as few as 200-500 MHC molecules containing a particular antigen can be detected by a T-cell. […] Upon antigenic stimulation, B3/CD8 produces IL-2, measured by ^3 H thymidine incorporation in IL-2-dependenT-cell line CTLL (Gillis, et al., J. Immunol. 120: 2027 91978)). Thus, by measuring the amount of IL-2 produced, one can assay for T-cell recognition. […]

Molecule | Kd [1] | T-cell recognition (IL-2 production by B3/CD8) (B3/CD8 T-cell hybridoma)
CC(C)C[C@H](NC(=O)CNC(=O)[C@H](CCC(N)=O)NC(=O)[C@H](Cc1ccc(O)cc1)NC(=O)[C@@H](NC(=O)[C@H](Cc1ccc(O)cc1)NC(=O)CNC(=O)[C@@H](N)CCCNC(=N)N)C(C)C)C(=O)O [VSV-8] | 3.7 nM | 
ovalbumin (protein, UniProt P01012 2-386, looked up, ovalbumin (Sigma) osmotically loaded into the cells) Ovalbumin: GSIGAASMEFCFDVFKELKVHHANENIFYCPIAIMSALAMVYLGAKDSTRTQINKVVRFDKLPGFGDSIEAQCGTSVNVHSSLRDILNQITKPNDVYSFSLASRLYAEERYPILPEYLQCVKELYRGGLEPINFQTAADQARELINSWVESQTNGIIRNVLQPSSVDSQTAMVLVNAIVFKGLWEKAFKDEDTQAMPFRVTEQESKPVQMMYQIGLFRVASMASEKMKILELPFASGTMSMLVLLPDEVSGLEQLESIINFEKLTEWTSSNVMEERKIKVYLPRMKMEEKYNLTSVLMAMGITDVFSSSANLSGISSAESLKISQAVHAAHAEINEAGREVVGSAEAGVDAASVSEEFRADHPFLFCIKHIATNAVLFFGRCVSP |  | no recognition occurred
